Results published in ChEMBL document CHEMBL1137579, “Discovery of 1-[2-[(1S)-(3-dimethylaminopropionyl)amino-2-methylpropyl]-4-methylphenyl]-4-[(2R)-methyl-3-(4-chlorophenyl)-propionyl]piperazine as an orally active antagonist of the melanocortin-4 receptor for the potential treatment of cachexia” (J Med Chem, 2007).
Values after ≈ are worked out from the molar mass of the structure shown. Active and inactive are the calls of the source. The rule behind the calls is not given here.

Tests used:
[1] = Ratio of drug level in brain to plasma in CD1 mouse at 10 mg/kg, po; assay type: ADME, organism-based; set-up: dose 10 mg/kg, route oral
[2] = Oral bioavailability in rhesus monkey at 10 mg/kg, po; assay type: ADME, organism-based, Macaca mulatta; settings: in vivo
[3] = Tmax in CD1 mouse brain at 10 mg/kg, po; assay type: ADME, organism-based; set-up: dose 10 mg/kg, route oral
[4] = AUC in Sprague-Dawley rat at 10 mg/kg, po; assay type: ADME, organism-based; set-up: dose 10 mg/kg, route oral; settings: plasma
[5] = Oral bioavailability in Beagle dog at 10 mg/kg, po; assay type: ADME, organism-based, Canis lupus familiaris; settings: in vivo
[6] = tested on: Caco-2; test: Permeability across Caco-2 cell membrane; assay type: ADME, cell-based; settings: human
[7] = Cmax in CD1 mouse at 10 mg/kg, po; assay type: ADME, organism-based; set-up: dose 10 mg/kg, route oral; settings: in vivo
[8] = Cmax in rat at 5 mg/kg, iv or 10 mg/kg, po; assay type: ADME, organism-based; settings: in vivo
[9] = Ratio of drug level in brain to plasma in rat at 5 mg/kg, iv or 10 mg/kg, po after 1 hr; assay type: ADME, organism-based
[10] = tested on: Mus musculus; test: Increase in food intake in C57BL/6J mouse at 20 mg/kg on day 11; assay type: functional, organism-based; set-up: dose 20 mg/kg
[11] = tested on: Mus musculus; test: Increase in food intake in C57BL/6J mouse at 20 mg/kg on day 10; assay type: functional, organism-based; set-up: dose 20 mg/kg
[12] = Cmax in Sprague-Dawley rat at 10 mg/kg, po; assay type: ADME, organism-based; set-up: dose 10 mg/kg, route oral; settings: in vivo
[13] = AUC in Beagle dog at 5 mg/kg, iv; assay type: ADME, organism-based, Canis lupus familiaris; set-up: dose 5 mg/kg, route intravenous; settings: plasma
[14] = Drug level in rat brain at 10 mg/kg, po after 4 hrs; assay type: ADME, organism-based; set-up: dose 10 mg/kg, route oral; settings: read-out: Drug uptake
[15] = Volume of distribution in rat at 5 mg/kg, iv or 10 mg/kg, po; assay type: ADME, organism-based; settings: in vivo
[16] = Dissociation constant, pKa of the compound; assay type: physicochemical
[17] = Cmax in Beagle dog at 10 mg/kg, po; assay type: ADME, organism-based, Canis lupus familiaris; set-up: dose 10 mg/kg, route oral; settings: in vivo
[18] = Tmax in CD1 mouse at 10 mg/kg, po; assay type: ADME, organism-based; set-up: dose 10 mg/kg, route oral; settings: in vivo, read-out: Tm
[19] = tested on: Mus musculus; test: AUC in CD1 mouse brain at 10 mg/kg, po; assay type: ADME, organism-based; set-up: dose 10 mg/kg, route oral; settings: in vivo
[20] = tested on: Mus musculus; test: Increase in food intake in C57BL/6J mouse at 5 mg/kg on day 10; assay type: functional, organism-based; set-up: dose 5 mg/kg
[21] = Volume of distribution in Beagle dog at 5 mg/kg, iv; assay type: ADME, organism-based, Canis lupus familiaris; set-up: dose 5 mg/kg, route intravenous; settings: in vivo
[22] = Volume of distribution in rhesus monkey at 5 mg/kg, iv; assay type: ADME, organism-based, Macaca mulatta; set-up: dose 5 mg/kg, route intravenous; settings: in vivo
[23] = target: Melanocyte-stimulating hormone receptor (Homo sapiens) (UniProt Q01726); test: Displacement of [125I]NDP-MSH from human MC1R
[24] = Cmax in rhesus monkey at 10 mg/kg, po; assay type: ADME, organism-based, Macaca mulatta; set-up: dose 10 mg/kg, route oral; settings: in vivo
[25] = Oral bioavailability in CD1 mouse at 10 mg/kg, po; assay type: ADME, organism-based; settings: in vivo
[26] = Drug level in rat brain at 10 mg/kg, po after 1 hr; assay type: ADME, organism-based; set-up: dose 10 mg/kg, route oral; settings: read-out: Drug uptake
[27] = Tmax in Sprague-Dawley rat brain at 10 mg/kg, po; assay type: ADME, organism-based; set-up: dose 10 mg/kg, route oral
[28] = Cmax in Sprague-Dawley rat brain at 10 mg/kg, po; assay type: ADME, organism-based; set-up: dose 10 mg/kg, route oral
[29] = Oral bioavailability in rat at 10 mg/kg, po; assay type: ADME, organism-based; settings: in vivo
[30] = AUC in […] rhesus monkey at 10 mg/kg, po; assay type: ADME, organism-based, Macaca mulatta; set-up: dose 10 mg/kg, route oral; settings: plasma
[31] = tested on: Mus musculus; test: Increase in food intake in C57BL/6J mouse at 5 mg/kg on day 11; assay type: functional, organism-based; set-up: dose 5 mg/kg
[32] = Tmax in rat at 5 mg/kg, iv or 10 mg/kg, po; assay type: ADME, organism-based; settings: in vivo
[33] = tested on: Rattus norvegicus; test: AUC in Sprague-Dawley rat brain at 10 mg/kg, po; assay type: ADME, organism-based; set-up: dose 10 mg/kg, route oral; settings: in vivo
[34] = Tmax in rhesus monkey at 10 mg/kg, po; assay type: ADME, organism-based, Macaca mulatta; set-up: dose 10 mg/kg, route oral; settings: in vivo, read-out: Tm
[35] = AUC in CD1 mouse at 2.5 mg/kg, iv; assay type: ADME, organism-based; set-up: dose 2.5 mg/kg, route intravenous; settings: plasma
[36] = AUC in rat at 10 mg/kg, po; assay type: ADME, organism-based; set-up: dose 10 mg/kg, route oral; settings: plasma
[37] = Volume of distribution in CD1 mouse at 2.5 mg/kg, iv; assay type: ADME, organism-based; set-up: dose 2.5 mg/kg, route intravenous; settings: in vivo
[38] = Aqueous solubility at pH 3.0; assay type: physicochemical; settings: aqueous medium
[39] = tested on: Mus musculus; test: Increase in food intake in C57BL/6J mouse at 20 mg/kg on day 12; assay type: functional, organism-based; set-up: dose 20 mg/kg
[40] = tested on: Mus musculus; test: Increase in food intake in C57BL/6J mouse at 5 mg/kg on day 12; assay type: functional, organism-based; set-up: dose 5 mg/kg
[41] = Ratio of drug level in brain to plasma in rat at 5 mg/kg, iv or 10 mg/kg, po after 4 hrs; assay type: ADME, organism-based
[42] = AUC in rhesus monkey at 5 mg/kg, iv; assay type: ADME, organism-based, Macaca mulatta; set-up: dose 5 mg/kg, route intravenous; settings: plasma
[43] = Cmax in CD1 mouse brain at 10 mg/kg, po; assay type: ADME, organism-based; set-up: dose 10 mg/kg, route oral
[44] = Aqueous solubility at pH 7.0; assay type: physicochemical; settings: aqueous medium
[45] = Tmax in Sprague-Dawley rat at 10 mg/kg, po; assay type: ADME, organism-based; set-up: dose 10 mg/kg, route oral; settings: in vivo, read-out: Tm
[46] = AUC in CD1 mouse at 10 mg/kg, po; assay type: ADME, organism-based; set-up: dose 10 mg/kg, route oral; settings: plasma
[47] = AUC in CD1 Beagle dog at 10 mg/kg, po; assay type: ADME, organism-based, Canis lupus familiaris; set-up: dose 10 mg/kg, route oral; settings: plasma
[48] = Tmax in Beagle dog at 10 mg/kg, po; assay type: ADME, organism-based, Canis lupus familiaris; set-up: dose 10 mg/kg, route oral; settings: in vivo, read-out: Tm
[49] = target: Melanocortin receptor 4 (Homo sapiens) (UniProt P32245); test: Activity at MC4R expressed in HEK293 cells assessed as stimulation of cAMP release at 10 uM relative to alpha-MSH; assay type: functional, cell-based
[50] = target: Cytochrome P450 3A4 (Homo sapiens, UniProt P08684); test: Inhibition of CYP3A4; assay type: ADME
[51] = Ratio of drug level in brain to plasma in rat at 2.5 mg/kg, iv or 10 mg/kg, po after 4 hrs; assay type: ADME, organism-based
[52] = Tmax in rat at 2.5 mg/kg, iv or 10 mg/kg, po; assay type: ADME, organism-based; settings: in vivo
[53] = Cmax in rat at 2.5 mg/kg, iv or 10 mg/kg, po; assay type: ADME, organism-based; settings: in vivo
[54] = Ratio of drug level in brain to plasma in rat at 2.5 mg/kg, iv or 10 mg/kg, po after 1 hr; assay type: ADME, organism-based
[55] = Volume of distribution in rat at 2.5 mg/kg, iv or 10 mg/kg, po; assay type: ADME, organism-based; settings: in vivo

Sequence of Melanocortin receptor 4 (Homo sapiens) (P32245 whole entry): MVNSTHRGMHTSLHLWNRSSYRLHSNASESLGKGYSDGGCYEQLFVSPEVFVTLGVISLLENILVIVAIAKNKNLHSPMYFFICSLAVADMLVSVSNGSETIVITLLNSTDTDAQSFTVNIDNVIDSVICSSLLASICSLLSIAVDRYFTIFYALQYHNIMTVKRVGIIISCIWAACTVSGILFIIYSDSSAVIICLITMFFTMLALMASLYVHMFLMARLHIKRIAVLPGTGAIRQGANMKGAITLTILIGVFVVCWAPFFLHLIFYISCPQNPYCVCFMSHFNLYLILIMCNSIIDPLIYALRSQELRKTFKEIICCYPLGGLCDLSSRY
Sequence of Cytochrome P450 3A4 (P08684 whole entry): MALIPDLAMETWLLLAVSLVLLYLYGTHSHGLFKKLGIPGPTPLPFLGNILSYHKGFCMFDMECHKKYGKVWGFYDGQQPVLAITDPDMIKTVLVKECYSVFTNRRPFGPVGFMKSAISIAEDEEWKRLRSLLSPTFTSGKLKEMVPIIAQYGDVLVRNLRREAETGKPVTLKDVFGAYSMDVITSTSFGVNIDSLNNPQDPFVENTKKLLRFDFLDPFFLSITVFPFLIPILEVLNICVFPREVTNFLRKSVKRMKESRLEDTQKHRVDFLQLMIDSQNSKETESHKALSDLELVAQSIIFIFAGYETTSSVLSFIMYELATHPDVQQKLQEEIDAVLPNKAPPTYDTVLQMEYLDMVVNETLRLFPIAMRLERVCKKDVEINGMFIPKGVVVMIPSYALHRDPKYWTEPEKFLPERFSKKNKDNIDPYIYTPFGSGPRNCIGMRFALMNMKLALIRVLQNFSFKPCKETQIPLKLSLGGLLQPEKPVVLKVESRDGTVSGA
Sequence of Melanocyte-stimulating hormone receptor (Homo sapiens) (Q01726 whole entry, looked up): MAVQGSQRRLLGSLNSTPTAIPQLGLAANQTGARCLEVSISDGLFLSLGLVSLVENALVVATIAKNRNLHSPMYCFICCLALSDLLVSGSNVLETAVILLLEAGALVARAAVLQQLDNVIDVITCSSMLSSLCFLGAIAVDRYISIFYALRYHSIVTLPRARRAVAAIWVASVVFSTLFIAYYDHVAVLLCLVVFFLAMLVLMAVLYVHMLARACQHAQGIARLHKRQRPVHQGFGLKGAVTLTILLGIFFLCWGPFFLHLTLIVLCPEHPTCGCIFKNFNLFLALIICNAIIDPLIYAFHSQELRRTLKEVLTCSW

Cc1ccc(N2CCN(C(=O)[C@H](C)Cc3ccc(Cl)cc3)CC2)c([C@@H](NC(=O)CCN(C)C)C(C)C)c1
Kp [1]: 0.15
bioavailability [2]: 19%
Tmax [3]: 0.3 h
AUC [4]: 1520 ng·h/mL
bioavailability [5]: 19%
permeability [6]: 6.2 10^-6 cm/s
Cmax [7]: 946 ng/mL
Cmax [8]: 110 ng/mL
Kp at 1 h [9]: 0.2
Activity [10]: Active
Activity [11]: Active
Cmax [12]: 279 ng/mL
AUC [13]: 8200 ng·h/mL
concentration at 4 h [14]: 33 ng/g
Vd [15]: 13 L/kg
pKa [16]: 7.8
Cmax [17]: 262 ng/mL
Tmax [18]: 0.5 h
AUC [19]: 367 ng·h/g
Activity [20]: Active
Vd [21]: 5.9 L/kg
Vd [22]: 2 L/kg
Activity [23]: 50%
Cmax [24]: 761 ng/mL
bioavailability [25]: 32%
concentration at 1 h [26]: 20 ng/g
Tmax [27]: 6 h
Cmax [28]: 41 ng/g
bioavailability [29]: 43%
AUC [30]: 3860 ng·h/mL
Activity [31]: Active
Tmax [32]: 4.7 h
AUC [33]: 254 ng·h/g
Tmax [34]: 1.8 h
AUC [35]: 1410 ng·h/mL
AUC [36]: 1400 ng·h/mL
Vd [37]: 4.1 L/kg
solubility [38]: > 71 mg/mL
Activity [39]: Active
Activity [40]: Active
Kp at 4 h [41]: 0.4
AUC [42]: 10300 ng·h/mL
Cmax [43]: 91 ng/g
solubility [44]: 33 mg/mL (≈ 62.6 mM)
Tmax [45]: 2.7 h
AUC [46]: 2530 ng·h/mL
AUC [47]: 2860 ng·h/mL
Tmax [48]: 1.7 h

Cc1ccc(N2CCN(C(=O)[C@H](C)Cc3ccc(Cl)cc3C)CC2)c([C@@H](N)C(C)C)c1
Activity [49]: 2%

CNCC(=O)N[C@H](c1cc(C)ccc1N1CCN(C(=O)[C@H](C)Cc2ccc(Cl)cc2F)CC1)C(C)C
IC50 [50]: 6.9 µM
permeability [6]: 0.8 10^-6 cm/s
Activity [49]: 12%

Cc1ccc(N2CCN(C(=O)[C@H](C)Cc3ccc(Cl)cc3C)CC2)c([C@@H](NC(=O)CCN(C)C)C(C)C)c1
permeability [6]: 1.9 10^-6 cm/s
Kp at 4 h [51]: 0.3
concentration at 4 h [14]: 42 ng/g
Tmax [52]: 4 h
concentration at 1 h [26]: 9 ng/g
Cmax [53]: 208 ng/mL
bioavailability [29]: 5.6%
AUC [36]: 1950 ng·h/mL
Kp at 1 h [54]: 0.1
Vd [55]: 4.3 L/kg

Cc1ccc(N2CCN(C(=O)[C@H](C)Cc3ccc(Cl)cc3)CC2)c([C@@H](N)C(C)C)c1
permeability [6]: 5 10^-6 cm/s
